Assay results published in patent publication US9365549B2, “Hepatitis C virus inhibitors” (THERAVANCE BIOPHARMA R&D IP, LLC, priority 2012, dated 2016).

How the values were obtained:
[1] = test system: HCV genotype 1a replicon cell line; assay: HCV Genotype 1a Replicon Assay; type: cell-based; details: Hepatitis C virus, Huh7.5 cell background, NS3-specific protease activity in lysates, 48 or 72 hours, read-out: pEC50 Genotype 1a (converted)
Description: Assay 2: HCV Genotype 1a Replicon Assay
The HCV genotype 1a replicon cell line was obtained from Apath LLC (APC89; Huh7.5 cell background). This subgenomic replicon contains the N-terminus of the HCV core protein fused to the neomycin-resistance selectable marker. The EMCV IRES lies downstream and drives expression of the non-structural proteins NS3-NS5B. Compound potencies were determined using the NS3-specific protease activity in lysates as a measurement of compound inhibition of replicon levels.
(§1) Cells were grown at 37° C. in a 5% CO2 humidified incubator in DMEM (Invitrogen) with 10% FBS (HyClone), 1×NEAA (Invitrogen), 1× Pen-Strep (Invitrogen), and 850 μg/mL G418 (Invitrogen). On day 1 of the assay, cells were plated at 15,000 cells/well in black 96-well tissue culture plates (Costar) in 200 μL media lacking G418. […] Compounds were initially diluted in DMSO and then diluted another 200× in media to bring the final DMSO concentration down to 0.5%. The cells were incubated with test compounds for 48 or 72 hours. At the end of the incubation period, media and compound were removed from the plates.
To determine the NS3-specific protease activity in lysates, the cells were lysed at room temperature in 50 μL/well of 50 mM Hepes pH 7.5, 150 mM NaCl, 15% Glycerol, 0.15% Triton X-100, 10 mM DTT for 20 minutes with shaking. 50 μL of an NS3/4a protease-specific FRET substrate (Anaspec RET S1 Cat#22991) was then added to the wells at a final concentration of 15 μM. The plates were incubated at 37° C. for 20 minutes, which corresponds to a timepoint at which the protease activity is still in the linear phase. Protease activity was determined by measuring fluorescence (Excitation: 340 nm; Emission: 509 nm).
To analyze the data, the fluorescence was plotted vs. the compound concentration, and EC50 values were determined from a 4-parameter robust fit model using GraphPad Prism software.

[2] = test system: HCV genotype 1b replicon cell line; assay: HCV Genotype 1b Replicon Assay; type: cell-based; details: Hepatitis C virus, Huh-7, Huh7 cell background, luciferase activity readout, 48 hours
Source text: Assay 1: HCV Genotype 1b Replicon Assay
The HCV genotype 1b replicon cell line was obtained from Apath LLC (Brooklyn, N.Y.) (APC144; Huh7 cell background). This subgenomic replicon contains the N-terminus of the HCV core protein fused to the neomycin-resistance selectable marker. The EMCV IRES lies downstream and drives expression of humanized Renilla luciferase fused to the non-structural proteins NS3-NS5B. This cell line was used to determine compound potency using the luciferase activity readout as a measurement of compound inhibition of replicon levels.
as §1, with “500” for “850”, “10,000” for “15,000”, “white” for “black”, “48” for “48 or 72”, “plates and the luciferase activity was determined using Promega Renilla-Glo reagents.” for “plates.”
To analyze the data, the luciferase activity was plotted vs. the compound concentration, and EC50 values were determined from a 4-parameter robust fit model with the GraphPad Prism software package (GraphPad Software, Inc., San Diego, Calif.). Results are expressed as the negative decadic logarithm of the EC50 value, pEC50.

SMILES | EC50 [1] [nM] | EC50 [2] [nM]
COC(=O)N[C@H](C(=O)N1CC(C2CC2)=C[C@H]1c1nc(-c2ccc(-c3cc(Cl)c(NC(=O)c4ccc(N5CCN(C(=O)[C@H]6CC6(C)C)C[C@H]5C)nc4)cc3OC(F)(F)F)cc2)c[nH]1)C(C)C [Example 4, ((S)-1-{(S)-2-[4-(5′-Chloro-4′-{[6-((R)-4-(S)-2,2-dimethylcyclopropanecarbonyl-2-methyl-piperazin-1-yl)-pyridine-3-carbonyl]-amino}-2′-trifluoromethoxy-biphenyl-4-yl)-1H-imidazol-2-yl]-4-cyclopropyl-2,5-dihydro-pyrrole-1-carbonyl}-2-methyl-propyl)-carbamic acid methyl ester] | < 0.1 | < 0.1
COC(=O)N[C@H](C(=O)N1C[Si](C)(C)C[C@H]1c1nc(-c2ccc(-c3cc(Cl)c(NC(=O)c4ccc(N5CCN(C(=O)[C@H]6CC6(C)C)C[C@H]5C)nc4)cc3OC(F)(F)F)cc2)c[nH]1)C(C)C [Example 5, ((S)-1-{(R)-5-[4-(5′-Chloro-4′-{[6-((R)-4-(S)-2,2-dimethylcyclopropanecarbonyl-2-methyl-piperazin-1-yl)-pyridine-3-carbonyl]-amino}-2′-trifluoromethoxy-biphenyl-4-yl)-1H-imidazol-2-yl]-3,3-dimethyl-[1,3]azasilolidine-1-carbonyl}-2-methyl-propyl)-carbamic acid methyl ester] | < 0.1 | < 0.1
COC(=O)N[C@H](C(=O)N1C[C@@H](C)C[C@H]1c1nc2c(ccc3cc(-c4cc(F)c(NC(=O)c5ccc(N6CCN(C(=O)C(C)(C)C)C[C@H]6C)nc5)cc4OC(F)(F)F)ccc32)[nH]1)C1CCOCC1 [Example 5-2] | < 0.1 | < 0.1
COC(=O)N[C@H](C(=O)N1C[C@@H](C)C[C@H]1c1nc2c(ccc3cc(-c4cc(F)c(NC(=O)c5ccc(N6CCN(C(=O)C(C)(C)CO)C[C@H]6C)nc5)cc4OC(F)(F)F)ccc32)[nH]1)C1CCOCC1 [Example 5-3] | < 0.1 | < 0.1
COC(=O)N[C@H](C(=O)N1C[C@@H](C)C[C@H]1c1nc2c(ccc3cc(-c4cc(Cl)c(C(=O)Nc5ccc(N6CCN(C(=O)C(C)(C)C)C[C@H]6C)nc5)cc4OC(F)(F)F)ccc32)[nH]1)C1CCOCC1 [Example 5-6] | < 0.1 | < 0.1
COC(=O)N[C@H](C(=O)N1C[C@@H](C)C[C@H]1c1nc2c(ccc3cc(-c4cc(Cl)c(C(=O)Nc5ccc(N6CCN(C(=O)C(C)(C)CO)C[C@H]6C)nc5)cc4OC(F)(F)F)ccc32)[nH]1)C1CCOCC1 [Example 5-7] | < 0.1 | < 0.1
COC(=O)N[C@H](C(=O)N1[C@@H]2C[C@@H]2CC[C@H]1c1nc(-c2ccc(-c3cc(Cl)c(NC(=O)c4ccc(N5CCN(C(=O)C(C)(C)C)C[C@H]5C)nc4)cc3OC(F)(F)F)cc2)c[nH]1)C(C)C [Example 5-10] | < 0.1 | < 0.1
COC(=O)N[C@H](C(=O)N1C[Si](C)(C)C[C@H]1c1nc(-c2ccc(-c3ccc(NC(=O)c4ccc(N5CCN(C(=O)C(C)(C)C)C[C@H]5C)nc4)cc3OC(F)(F)F)cc2)c[nH]1)C(C)C [Example 7, [(S)-1-((R)-5-{4-[4′-({6-[(R)-4-(2,2-dimethyl-propionyl)-2-methyl-piperazin-1-yl]-pyridine-3-carbonyl}-amino)-2′-trifluoromethoxy-biphenyl-4-yl]-1H-imidazol-2-yl}-3,3-dimethyl-[1,3]azasilolidine-1-carbonyl)-2-methyl-propyl]-carbamic acid methyl ester] | 0.1 to 1 | < 0.1
COC(=O)N[C@H](C(=O)N1C[C@@H](C)C[C@H]1c1nc2c(ccc3cc(-c4cc(Cl)c(NC(=O)c5ccc(N6CCN(C(=O)C(C)(C)C)C[C@H]6C)nc5)cc4OC(F)(F)F)ccc32)[nH]1)C(C)C [Example 8, [(S)-1-((2S,4S)-2-{7-[5-Chloro-4-({6-[(R)-4-(2,2-dimethyl-propionyl)-2-methyl-piperazin-1-yl]-pyridine-3-carbonyl}-amino)-2-trifluoromethoxy-phenyl]-3H-naphtho[1,2-d]imidazol-2-yl}-4-methyl-pyrrolidine-1-carbonyl)-2-methyl-propyl]-carbamic acid methyl ester] | < 0.1 | < 0.1
COC(=O)N[C@H](C(=O)N1C[C@@H](C)C[C@H]1c1nc2c(ccc3cc(-c4cc(Cl)c(NC(=O)c5ccc(N6CCN(C(=O)C7CC7)C[C@H]6C)nc5)cc4OC(F)(F)F)ccc32)[nH]1)C(C)C [Example 9, ((S)-1-{(2S,4S)-2-[7-(5-Chloro-4-{[6-((R)-4-cyclopropanecarbonyl-2-methyl-piperazin-1-yl)-pyridine-3-carbonyl]-amino}-2-trifluoromethoxy-phenyl)-3H-naphtho[1,2-d]imidazol-2-yl]-4-methyl-pyrrolidine-1-carbonyl}-2-methyl-propyl)-carbamic acid methyl ester] | < 0.1 | < 0.1
COC(=O)N[C@H](C(=O)N1C[C@@H](C)C[C@H]1c1nc2c(ccc3cc(-c4cc(Cl)c(NC(=O)c5ccc(N6CCN(C(=O)[C@H]7CC7(C)C)C[C@H]6C)nc5)cc4OC(F)(F)F)ccc32)[nH]1)C(C)C [Example 10, [(S)-1-((2S,4S)-2-{7-[5-Chloro-4-({6-[(R)-4-((S)-2,2-dimethylcyclopropanecarbonyl)-2-methyl-piperazin-1-yl]-pyridine-3-carbonyl}-amino)-2-trifluoromethoxy-phenyl]-3H-naphtho[1,2-d]imidazol-2-yl}-4-methyl-pyrrolidine-1-carbonyl)-2-methyl-propyl]-carbamic acid methyl ester] | < 0.1 | < 0.1
COC(=O)N[C@H](C(=O)N1C[C@@H](C)CC[C@H]1c1nc(-c2ccc(-c3cc(Cl)c(NC(=O)c4ccc(N5CCN(C(=O)C(C)(C)CO)C[C@H]5C)nc4)cc3OC(F)(F)F)cc2)c[nH]1)C(C)C [Example 11, [(S)-1-((2S,5S)-2-{4-[5′-Chloro-4′-({6-[(R)-4-(3-hydroxy-2,2-dimethyl-propionyl)-2-methyl-piperazin-1-yl]-pyridine-3-carbonyl}-amino)-2′-trifluoromethoxy-biphenyl-4-yl]-1H-imidazol-2-yl}-5-methyl-piperidine-1-carbonyl)-2-methyl-propyl]-carbamic acid methyl ester] | 0.1 to 1 | –
COC(=O)N[C@H](C(=O)N1CC(C2CC2)=C[C@H]1c1nc(-c2ccc(-c3ccc(C(=O)Nc4ccc(N5CCN(C(=O)C(C)(C)C)C[C@H]5C)nc4)cc3OC(F)(F)F)cc2)c[nH]1)C(C)C [Example 12, ((S)-1-{(S)-4-Cyclopropyl-2-[4-(4′-{6-[(R)-4-(2,2-dimethyl-propionyl)-2-methyl-piperazin-1-yl]-pyridin-3-ylcarbamoyl}-2′-trifluoromethoxy-biphenyl-4-yl)-1H-imidazol-2-yl]-2,5-dihydro-pyrrole-1-carbonyl}-2-methyl-propyl)-carbamic acid methyl ester] | 0.1 to 1 | –
COC(=O)N[C@H](C(=O)N1C[C@@H](C)C[C@H]1c1nc2c(ccc3cc(-c4ccc(C(=O)Nc5ccc(N6CCN(C(=O)C(C)(C)C)C[C@H]6C)nc5)cc4OC(F)(F)F)ccc32)[nH]1)C(C)C [Example 13, ((S)-1-{(2S,4S)-2-[7-(4-{6-[(R)-4-(2,2-Dimethyl-propionyl)-2-methyl-piperazin-1-yl]-pyridin-3-ylcarbamoyl}-2-trifluoromethoxy-phenyl)-3H-naphth[1,2-d]imidazol-2-yl]-4-methyl-pyrrolidine-1-carbonyl}-2-methyl-propyl)-carbamic acid methyl ester] | < 0.1 | < 0.1
